Reference: ChEMBL document CHEMBL4387741, “Optimization of novel reversible Bruton's tyrosine kinase inhibitors identified using Tethering-fragment-based screens” (Bioorg Med Chem, 2019)

Legend:
[1] = system: Epidermal growth factor receptor (Homo sapiens), P00533 [UNDEFINED MUTATION]; assay: Inhibition of human partial length EGFR L747-T751del/Sins mutant expressed in bacterial expression system at 1 uM by Kinomescan method relative to control
[2] = biological target: Phosphatidylinositol 4-phosphate 5-kinase type-1 gamma (Homo sapiens) (UniProt O60331); assay: Inhibition of wild-type human partial length PIP5K1C (M1 to T668 residues) expressed in mammalian expression system at 1 uM by Kinomescan method relative to control
[3] = biological target: Receptor-interacting serine/threonine-protein kinase 2 (Homo sapiens) (UniProt O43353); assay: Inhibition of wild-type human partial length RIPK2 (M1 to K310 residues) expressed in bacterial expression system at 1 uM by Kinomescan method relative to control
[4] = biological target: Phosphatidylinositol 4,5-bisphosphate 3-kinase catalytic subunit beta isoform (Homo sapiens) (UniProt P42338); assay: Inhibition of wild-type human partial length PIK3CB (P118 to S1070 residues) expressed in mammalian expression system at 1 uM by Kinomescan method relative to control
[5] = biological target: Myosin light chain kinase 2, skeletal/cardiac muscle (Homo sapiens) (UniProt Q9H1R3); assay: Inhibition of wild-type human partial length MYLK2 (D258 to K570 residues) expressed in bacterial expression system at 1 uM by Kinomescan method relative to control
[6] = biological target: Serine/threonine-protein kinase RIO2 (Homo sapiens) (UniProt Q9BVS4); assay: Inhibition of wild-type human partial length RIOK2 (M1 to D313 residues) expressed in mammalian expression system at 1 uM by Kinomescan method relative to control
[7] = biological target: Calcium/calmodulin-dependent protein kinase type 1 (Homo sapiens) (UniProt Q14012); assay: Inhibition of wild-type human full length CAMK1 (M1 to L370 residues) expressed in bacterial expression system at 1 uM by Kinomescan method relative to control
[8] = biological target: cGMP-dependent protein kinase 2 (Homo sapiens) (UniProt Q13237); assay: Inhibition of wild-type human partial length PRKG2 (S422 to F762 residues) expressed in mammalian expression system at 1 uM by Kinomescan method relative to control
[9] = biological target: G protein-coupled receptor kinase 4 (Homo sapiens) (UniProt P32298); assay: Inhibition of wild-type human full length GRK4 (M1 to C578 residues) expressed in bacterial expression system at 1 uM by Kinomescan method relative to control
[10] = system: Epidermal growth factor receptor (Homo sapiens), P00533 [G719S]; assay: Inhibition of human partial length EGFR G719S mutant (R669 to V1011 residues) expressed in bacterial expression system at 1 uM by Kinomescan method relative to control
[11] = biological target: Rhodopsin kinase GRK1 (Homo sapiens) (UniProt Q15835); assay: Inhibition of wild-type human full length GRK1 (M1 to S563 residues) expressed in mammalian expression system at 1 uM by Kinomescan method relative to control
[12] = system: ALK tyrosine kinase receptor (Homo sapiens), Q9UM73 [C1156Y]; assay: Inhibition of wild-type human partial length ALK C1156Y mutant (I1088 to E1409 residues) expressed in mammalian expression system at 1 uM by Kinomescan method relative to control
[13] = biological target: Rhodopsin kinase GRK1 (Homo sapiens) (UniProt Q15835); assay: Inhibition of wild-type human full length GRK1 (M1 to S563 residues) expressed in mammalian expression system at 10 uM by Kinomescan method relative to control
[14] = biological target: Cyclin-dependent kinase 18 (Homo sapiens) (UniProt Q07002); assay: Inhibition of wild-type human full length PCTK3 (M3 to F474 residues) expressed in bacterial expression system at 10 uM by Kinomescan method relative to control
[15] = biological target: Ephrin type-A receptor 1 (Homo sapiens) (UniProt P21709); assay: Inhibition of wild-type human partial length EPHA1 (V588 to I913 residues) expressed in bacterial expression system at 10 uM by Kinomescan method relative to control
[16] = biological target: Serine/threonine-protein kinase ULK3 (Homo sapiens) (UniProt Q6PHR2); assay: Inhibition of wild-type human partial length ULK3 (M1 to Q290 residues) expressed in mammalian expression system at 10 uM by Kinomescan method relative to control
[17] = biological target: Serine/threonine-protein kinase Chk1 (Homo sapiens) (UniProt O14757); assay: Inhibition of wild-type human partial length CHEK1 (M1 to G289 residues) expressed in bacterial expression system at 10 uM by Kinomescan method relative to control
[18] = biological target: Serine/threonine-protein kinase LATS1 (Homo sapiens) (UniProt O95835); assay: Inhibition of wild-type human partial length LATS1 (Q678 to V1130 residues) expressed in bacterial expression system at 10 uM by Kinomescan method relative to control
[19] = biological target: Tyrosine-protein kinase receptor UFO (Homo sapiens) (UniProt P30530); assay: Inhibition of wild-type human partial length AXL (R497 to Y821 residues) expressed in bacterial expression system at 10 uM by Kinomescan method relative to control
[20] = biological target: Casein kinase I isoform epsilon (Homo sapiens) (UniProt P49674); assay: Inhibition of wild-type human full length CSNK1E (M1 to K416 residues) expressed in bacterial expression system at 10 uM by Kinomescan method relative to control
[21] = biological target: Beta-adrenergic receptor kinase 1 (Homo sapiens) (UniProt P25098); assay: Inhibition of wild-type human full length GRK2 (M1 to L689 residues) expressed in mammalian expression system at 10 uM by Kinomescan method relative to control
[22] = biological target: 5'-AMP-activated protein kinase catalytic subunit alpha-2 (Homo sapiens) (UniProt P54646); assay: Inhibition of wild-type human partial length AMPK alpha2 (M1 to E306 residues) expressed in bacterial expression system at 10 uM by Kinomescan method relative to control
[23] = biological target: Phosphatidylinositol 4,5-bisphosphate 3-kinase catalytic subunit beta isoform (Homo sapiens) (UniProt P42338); assay: Inhibition of wild-type human partial length PIK3CB (P118 to S1070 residues) expressed in mammalian expression system at 10 uM by Kinomescan method relative to control
[24] = system: Receptor-type tyrosine-protein kinase FLT3 (Homo sapiens), P36888 [UNDEFINED MUTATION]; assay: Inhibition of human partial length FLT3 ITD mutant expressed in bacterial expression system at 10 uM by Kinomescan method relative to control
[25] = biological target: ALK tyrosine kinase receptor (Homo sapiens) (UniProt Q9UM73); assay: Inhibition of wild-type human partial length ALK (I1088 to E1409 residues) expressed in mammalian expression system at 10 uM by Kinomescan method relative to control
[26] = biological target: Ribosomal protein S6 kinase alpha-6 (Homo sapiens) (UniProt Q9UK32); assay: Inhibition of wild-type human partial length N-terminal RSK4 kinase domain 1 (M1 to E397 residues) expressed in mammalian expression system at 10 uM by Kinomescan method relative to control
[27] = system: Receptor-type tyrosine-protein kinase FLT3 (Homo sapiens), P36888 [D835Y]; assay: Inhibition of human partial length FLT3 D835Y mutant (Q580 to Y969 residues) expressed in bacterial expression system at 10 uM by Kinomescan method relative to control

Chain of Rhodopsin kinase GRK1 (Homo sapiens) (Q15835 whole entry, the tested form may be a part): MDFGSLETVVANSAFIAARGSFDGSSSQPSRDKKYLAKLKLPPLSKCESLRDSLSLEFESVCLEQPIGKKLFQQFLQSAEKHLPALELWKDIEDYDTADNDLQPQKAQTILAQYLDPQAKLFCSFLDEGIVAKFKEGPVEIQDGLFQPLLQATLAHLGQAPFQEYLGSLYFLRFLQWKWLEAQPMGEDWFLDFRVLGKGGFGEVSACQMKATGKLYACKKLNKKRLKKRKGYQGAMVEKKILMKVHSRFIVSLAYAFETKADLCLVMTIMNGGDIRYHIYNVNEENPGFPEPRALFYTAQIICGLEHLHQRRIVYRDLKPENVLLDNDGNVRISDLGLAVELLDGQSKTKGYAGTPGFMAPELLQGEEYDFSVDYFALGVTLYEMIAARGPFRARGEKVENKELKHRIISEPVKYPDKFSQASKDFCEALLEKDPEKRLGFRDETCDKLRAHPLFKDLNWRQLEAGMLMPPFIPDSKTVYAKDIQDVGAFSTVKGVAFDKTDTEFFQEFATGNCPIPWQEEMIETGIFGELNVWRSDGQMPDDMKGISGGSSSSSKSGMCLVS
Chain of Phosphatidylinositol 4,5-bisphosphate 3-kinase catalytic subunit beta isoform (Homo sapiens) (P42338 whole entry, looked up, the tested form may be a part, canonical isoform): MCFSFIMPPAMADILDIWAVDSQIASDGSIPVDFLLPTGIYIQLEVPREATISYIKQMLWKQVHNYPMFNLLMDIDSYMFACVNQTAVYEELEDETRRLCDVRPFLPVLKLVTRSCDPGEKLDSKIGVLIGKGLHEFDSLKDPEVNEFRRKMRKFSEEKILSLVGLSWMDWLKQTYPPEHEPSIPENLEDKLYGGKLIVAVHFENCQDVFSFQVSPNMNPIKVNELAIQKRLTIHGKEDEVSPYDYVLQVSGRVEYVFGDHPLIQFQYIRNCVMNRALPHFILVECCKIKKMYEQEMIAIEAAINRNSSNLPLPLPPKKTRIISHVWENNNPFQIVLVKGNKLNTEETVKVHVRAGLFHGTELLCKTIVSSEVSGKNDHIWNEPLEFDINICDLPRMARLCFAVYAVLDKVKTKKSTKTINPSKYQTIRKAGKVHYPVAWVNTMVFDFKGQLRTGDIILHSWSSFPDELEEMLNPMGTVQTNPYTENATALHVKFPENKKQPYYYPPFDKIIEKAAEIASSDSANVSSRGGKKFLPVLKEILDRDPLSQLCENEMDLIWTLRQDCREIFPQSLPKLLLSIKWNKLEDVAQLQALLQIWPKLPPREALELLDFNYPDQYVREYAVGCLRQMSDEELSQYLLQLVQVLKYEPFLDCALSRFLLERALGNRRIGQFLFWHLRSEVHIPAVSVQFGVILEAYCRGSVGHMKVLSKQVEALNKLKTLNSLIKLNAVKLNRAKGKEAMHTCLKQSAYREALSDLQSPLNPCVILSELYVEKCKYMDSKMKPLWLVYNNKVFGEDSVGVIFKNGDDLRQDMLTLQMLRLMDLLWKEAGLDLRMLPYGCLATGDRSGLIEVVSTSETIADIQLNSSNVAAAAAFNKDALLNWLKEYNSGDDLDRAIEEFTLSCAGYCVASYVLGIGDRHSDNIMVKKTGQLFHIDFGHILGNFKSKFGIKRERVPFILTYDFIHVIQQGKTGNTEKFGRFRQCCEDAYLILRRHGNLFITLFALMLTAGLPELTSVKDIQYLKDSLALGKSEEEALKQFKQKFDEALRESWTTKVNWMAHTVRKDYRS
Chain of Serine/threonine-protein kinase ULK3 (Homo sapiens) (Q6PHR2 whole entry, the tested form may be a part): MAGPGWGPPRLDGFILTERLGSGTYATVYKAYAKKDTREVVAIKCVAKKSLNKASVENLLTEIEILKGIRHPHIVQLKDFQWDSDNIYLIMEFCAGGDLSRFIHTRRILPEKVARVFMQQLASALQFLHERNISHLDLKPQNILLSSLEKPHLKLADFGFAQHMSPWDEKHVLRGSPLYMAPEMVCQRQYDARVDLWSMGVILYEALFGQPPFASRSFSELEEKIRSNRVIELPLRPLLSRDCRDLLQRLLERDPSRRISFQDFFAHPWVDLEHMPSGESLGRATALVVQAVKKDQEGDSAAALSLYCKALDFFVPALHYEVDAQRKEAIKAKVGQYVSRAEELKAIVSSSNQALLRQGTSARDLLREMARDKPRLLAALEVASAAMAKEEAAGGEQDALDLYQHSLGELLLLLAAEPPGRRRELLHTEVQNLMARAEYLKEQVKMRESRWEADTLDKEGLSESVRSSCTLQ
Chain of Serine/threonine-protein kinase RIO2 (Homo sapiens) (Q9BVS4 whole entry, looked up, the tested form may be a part): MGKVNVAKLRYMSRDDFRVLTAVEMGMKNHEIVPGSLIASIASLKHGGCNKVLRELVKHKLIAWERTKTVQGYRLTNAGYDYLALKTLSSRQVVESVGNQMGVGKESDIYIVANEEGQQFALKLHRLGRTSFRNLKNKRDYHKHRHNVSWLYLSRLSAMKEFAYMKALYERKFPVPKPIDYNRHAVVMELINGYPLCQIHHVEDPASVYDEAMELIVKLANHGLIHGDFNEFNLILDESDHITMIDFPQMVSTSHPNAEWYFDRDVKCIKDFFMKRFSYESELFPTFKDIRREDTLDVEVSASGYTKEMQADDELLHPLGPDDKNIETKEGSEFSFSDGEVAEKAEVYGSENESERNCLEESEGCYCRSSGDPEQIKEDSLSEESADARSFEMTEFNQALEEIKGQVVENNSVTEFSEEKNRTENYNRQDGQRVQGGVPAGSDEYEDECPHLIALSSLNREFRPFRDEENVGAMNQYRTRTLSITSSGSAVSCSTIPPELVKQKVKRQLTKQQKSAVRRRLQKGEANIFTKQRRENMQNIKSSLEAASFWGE
Chain of ALK tyrosine kinase receptor (Homo sapiens) (Q9UM73 19-1620 limits assumed): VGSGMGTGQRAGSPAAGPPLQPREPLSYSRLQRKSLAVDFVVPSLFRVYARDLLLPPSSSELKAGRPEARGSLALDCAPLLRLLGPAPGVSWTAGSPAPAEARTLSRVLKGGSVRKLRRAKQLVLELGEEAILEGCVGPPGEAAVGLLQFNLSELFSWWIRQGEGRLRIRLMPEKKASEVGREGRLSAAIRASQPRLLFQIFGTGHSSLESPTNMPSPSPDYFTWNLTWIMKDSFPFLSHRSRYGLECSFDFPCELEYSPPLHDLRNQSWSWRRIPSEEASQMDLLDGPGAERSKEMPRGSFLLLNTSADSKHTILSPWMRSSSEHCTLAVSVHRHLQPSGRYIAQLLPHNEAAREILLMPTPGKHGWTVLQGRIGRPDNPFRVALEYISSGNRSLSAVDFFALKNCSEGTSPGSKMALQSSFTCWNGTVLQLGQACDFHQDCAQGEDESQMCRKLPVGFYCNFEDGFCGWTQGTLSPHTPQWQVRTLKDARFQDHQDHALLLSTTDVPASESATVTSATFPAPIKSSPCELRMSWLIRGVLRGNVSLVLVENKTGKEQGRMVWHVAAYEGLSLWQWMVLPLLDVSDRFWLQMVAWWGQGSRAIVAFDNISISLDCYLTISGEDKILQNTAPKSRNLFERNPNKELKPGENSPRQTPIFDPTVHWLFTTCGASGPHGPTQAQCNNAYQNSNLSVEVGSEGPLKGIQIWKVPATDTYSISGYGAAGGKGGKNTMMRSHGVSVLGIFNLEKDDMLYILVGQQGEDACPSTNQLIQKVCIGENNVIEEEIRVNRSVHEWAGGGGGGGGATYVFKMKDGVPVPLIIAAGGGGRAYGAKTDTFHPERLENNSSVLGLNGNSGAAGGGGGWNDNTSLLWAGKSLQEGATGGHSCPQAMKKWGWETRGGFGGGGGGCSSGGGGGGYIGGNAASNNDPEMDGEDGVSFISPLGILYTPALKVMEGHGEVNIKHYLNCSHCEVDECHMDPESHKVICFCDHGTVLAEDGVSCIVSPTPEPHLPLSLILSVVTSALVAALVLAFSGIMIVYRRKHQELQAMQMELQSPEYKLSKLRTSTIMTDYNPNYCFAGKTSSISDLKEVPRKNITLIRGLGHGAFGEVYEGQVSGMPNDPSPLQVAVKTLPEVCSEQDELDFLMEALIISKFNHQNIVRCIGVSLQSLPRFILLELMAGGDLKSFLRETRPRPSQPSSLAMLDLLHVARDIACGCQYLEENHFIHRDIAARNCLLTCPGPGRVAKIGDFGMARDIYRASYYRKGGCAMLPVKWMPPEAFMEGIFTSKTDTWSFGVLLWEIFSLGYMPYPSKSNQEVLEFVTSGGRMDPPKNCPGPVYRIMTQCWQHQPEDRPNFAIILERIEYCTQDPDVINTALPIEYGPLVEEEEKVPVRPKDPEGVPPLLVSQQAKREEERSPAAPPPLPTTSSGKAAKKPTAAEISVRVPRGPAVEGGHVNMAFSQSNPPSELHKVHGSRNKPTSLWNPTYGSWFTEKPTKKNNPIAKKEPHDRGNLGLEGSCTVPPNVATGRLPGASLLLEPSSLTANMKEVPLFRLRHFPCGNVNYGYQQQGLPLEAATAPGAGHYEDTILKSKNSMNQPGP
Chain of Serine/threonine-protein kinase Chk1 (Homo sapiens) (O14757 whole entry, the tested form may be a part): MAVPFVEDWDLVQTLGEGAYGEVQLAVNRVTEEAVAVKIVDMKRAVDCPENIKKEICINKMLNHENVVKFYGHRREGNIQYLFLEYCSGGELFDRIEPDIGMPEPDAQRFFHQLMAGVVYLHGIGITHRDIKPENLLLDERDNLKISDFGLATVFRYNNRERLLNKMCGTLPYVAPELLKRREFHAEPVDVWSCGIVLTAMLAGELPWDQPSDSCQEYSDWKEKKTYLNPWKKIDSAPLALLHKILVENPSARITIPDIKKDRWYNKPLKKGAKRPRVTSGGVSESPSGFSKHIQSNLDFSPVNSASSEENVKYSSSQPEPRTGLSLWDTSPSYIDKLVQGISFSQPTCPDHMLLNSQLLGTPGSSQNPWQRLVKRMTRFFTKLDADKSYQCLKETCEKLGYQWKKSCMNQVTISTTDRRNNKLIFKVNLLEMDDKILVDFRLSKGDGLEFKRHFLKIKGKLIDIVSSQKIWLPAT

How did the inhibition [1] turn out when `O=C(Nc1cccc([C@@H]2CN(c3ncnc4[nH]ccc34)CCN2CCO)c1)Nc1c(F)cccc1N1CCCC1` was run?
The inhibition was 76%.

And the inhibition [2]?
The inhibition was 70%.

And the inhibition [3]?
Its inhibition is 100%.

And the inhibition [4]?
Its inhibition is 100%.

And the inhibition [5]?
The inhibition was 100%.

What about the inhibition [6] of the same molecule?
Its inhibition is 92%.

And the inhibition [7]?
The inhibition was 95%.

And the inhibition [8]?
The inhibition was 100%.

What about the inhibition [9] of the same molecule?
The inhibition was 66%.

What about the inhibition [10] of the same molecule?
The inhibition was 90%.

What about the inhibition [11] of the same molecule?
The inhibition was 78%.

And the inhibition [12]?
Its inhibition is 70%.

For `O=C(Nc1cccc([C@H]2CCCN(c3ncnc4[nH]ccc34)C2)c1)Nc1ccccc1N1CCCC1`, which inhibition [13] is on record?
The inhibition was 63%.

And the inhibition [14]?
The inhibition was 70%.

And the inhibition [15]?
Its inhibition is 89%.

And the inhibition [16]?
Its inhibition is 6.2%.

And the inhibition [17]?
Its inhibition is 100%.

What about the inhibition [18] of the same molecule?
The inhibition was 14%.

And the inhibition [19]?
Its inhibition is 16%.

And the inhibition [20]?
The inhibition was 90%.

What about the inhibition [21] of the same molecule?
The inhibition was 98%.

And the inhibition [22]?
The inhibition was 4.7%.

And the inhibition [23]?
The inhibition was 94%.

And the inhibition [24]?
Its inhibition is 8.5%.

And the inhibition [25]?
The inhibition was 80%.

What about the inhibition [26] of the same molecule?
Its inhibition is 34%.

What about the inhibition [27] of the same molecule?
Its inhibition is 1.9%.
